According to ChEMBL document CHEMBL4431344, “Synthesis of potent and broad genotypically active NS5B HCV non-nucleoside inhibitors binding to the thumb domain allosteric site 2 of the viral polymerase” (Bioorg Med Chem Lett, 2016):

What was measured:
Hepatitis C virus = experiment: Antiviral activity against HCV assessed as inhibition of viral RNA replication in replicon cells by luciferase reporter gene assay; format: functional, Hepacivirus hominis
[1] = biological target: RNA-directed RNA polymerase (Hepacivirus hominis, UniProt O39930); experiment: Inhibition of HCV NS5B RNA dependent RNA polymerase
Chain of RNA-directed RNA polymerase (O39930 whole entry): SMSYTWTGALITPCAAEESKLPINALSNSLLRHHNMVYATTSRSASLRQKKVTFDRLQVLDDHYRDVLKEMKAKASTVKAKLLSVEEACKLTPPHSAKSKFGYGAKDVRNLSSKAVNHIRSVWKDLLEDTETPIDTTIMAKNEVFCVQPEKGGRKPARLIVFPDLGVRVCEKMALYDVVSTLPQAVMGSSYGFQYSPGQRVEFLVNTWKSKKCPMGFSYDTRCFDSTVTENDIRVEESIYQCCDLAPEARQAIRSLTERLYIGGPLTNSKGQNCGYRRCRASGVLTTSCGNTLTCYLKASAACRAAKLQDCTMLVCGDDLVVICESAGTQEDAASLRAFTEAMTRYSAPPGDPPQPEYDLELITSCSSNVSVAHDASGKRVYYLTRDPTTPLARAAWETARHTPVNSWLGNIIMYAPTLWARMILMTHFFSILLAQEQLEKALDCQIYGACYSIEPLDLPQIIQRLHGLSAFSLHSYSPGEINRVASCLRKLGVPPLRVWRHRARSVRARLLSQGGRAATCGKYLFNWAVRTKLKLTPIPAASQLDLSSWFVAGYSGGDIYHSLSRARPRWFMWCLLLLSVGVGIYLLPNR

Genome polyprotein [2] = biological target: Genome polyprotein (Hepatitis C virus genotype 1b (strain HC-J4) (HCV), UniProt O92972); experiment: Inhibition of HCV genotype 1b J4 NS5B RNA dependent RNA polymerase; set-up: species or system Hepatitis C virus isolate HC-J4
Chain of Genome polyprotein (Hepatitis C virus genotype 1b (strain HC-J4) (HCV), UniProt O92972) (O92972 2420-3010 limits assumed): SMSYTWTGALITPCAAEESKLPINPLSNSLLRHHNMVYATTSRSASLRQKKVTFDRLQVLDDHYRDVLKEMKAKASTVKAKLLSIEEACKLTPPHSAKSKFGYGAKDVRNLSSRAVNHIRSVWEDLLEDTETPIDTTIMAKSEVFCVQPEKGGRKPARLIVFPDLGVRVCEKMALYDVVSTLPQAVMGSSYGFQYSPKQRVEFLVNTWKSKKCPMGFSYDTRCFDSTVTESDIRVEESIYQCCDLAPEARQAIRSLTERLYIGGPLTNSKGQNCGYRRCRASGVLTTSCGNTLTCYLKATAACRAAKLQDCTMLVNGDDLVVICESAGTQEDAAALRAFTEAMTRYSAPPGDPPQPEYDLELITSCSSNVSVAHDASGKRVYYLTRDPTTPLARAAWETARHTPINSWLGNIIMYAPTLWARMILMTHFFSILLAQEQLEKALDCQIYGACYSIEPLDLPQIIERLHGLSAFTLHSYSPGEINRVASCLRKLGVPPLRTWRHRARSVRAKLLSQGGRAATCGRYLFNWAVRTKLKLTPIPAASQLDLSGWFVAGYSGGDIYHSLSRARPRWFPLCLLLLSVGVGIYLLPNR

Genome polyprotein [3] = biological target: Genome polyprotein (Hepatitis C virus genotype 1b (isolate Con1) (HCV), UniProt Q9WMX2); experiment: Inhibition of HCV genotype 1b Con1 NS5B RNA dependent RNA polymerase
Chain of Genome polyprotein (Hepatitis C virus genotype 1b (isolate Con1) (HCV), UniProt Q9WMX2) (Q9WMX2 2420-3010 limits assumed): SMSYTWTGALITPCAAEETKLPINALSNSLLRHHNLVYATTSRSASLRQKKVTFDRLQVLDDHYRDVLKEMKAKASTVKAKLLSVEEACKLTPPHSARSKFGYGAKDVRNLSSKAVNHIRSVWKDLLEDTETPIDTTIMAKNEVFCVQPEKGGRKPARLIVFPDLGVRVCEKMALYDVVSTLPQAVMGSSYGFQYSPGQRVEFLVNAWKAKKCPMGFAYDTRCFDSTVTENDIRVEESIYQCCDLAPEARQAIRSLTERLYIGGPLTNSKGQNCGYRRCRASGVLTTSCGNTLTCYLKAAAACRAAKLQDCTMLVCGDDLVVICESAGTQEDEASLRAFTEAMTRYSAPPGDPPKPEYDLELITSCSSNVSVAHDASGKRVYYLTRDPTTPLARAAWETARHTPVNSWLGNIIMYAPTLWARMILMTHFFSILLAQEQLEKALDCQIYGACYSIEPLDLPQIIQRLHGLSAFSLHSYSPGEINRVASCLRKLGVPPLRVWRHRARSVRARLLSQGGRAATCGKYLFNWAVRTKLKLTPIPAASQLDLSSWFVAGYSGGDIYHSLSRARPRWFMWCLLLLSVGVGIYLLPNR

**Q.** What does the source list for Cc1ccc(S(=O)(=O)Nc2cc(-c3ccccc3)sc2C(=O)O)c(C)c1?
**A.** EC50 (Hepatitis C virus): 5 µM; IC50 [1]: 1 µM

**Q.** Cc1ccc(P(=O)(Nc2cc(-c3ccc(Cl)cc3)sc2C(=O)O)OCC2CCOCC2)c(C)c1 (stereo not given) was tested. Which EC50 (Hepatitis C virus) did it give?
**A.** The EC50 was 0.32 µM.

**Q.** What about the IC50 (Genome polyprotein [2]) of the same compound?
**A.** Its IC50 is 0.154 µM.

**Q.** With COP(=O)(Nc1cc(-c2ccc(Cl)cc2)sc1C(=O)O)c1ccc(Cl)cc1C (stereo not given) as the compound, how does the EC50 (Hepatitis C virus) read?
**A.** The EC50 was 1.55 µM.

**Q.** And the IC50 (Genome polyprotein [2])?
**A.** The IC50 was 0.026 µM.

**Q.** Which EC50 (Hepatitis C virus) does the source give for CCOP(=O)(Nc1cc(-c2ccc(Cl)cc2)sc1C(=O)O)C1CCC(C)CC1 (stereo not given) here?
**A.** The EC50 was over 8.3 µM.

**Q.** What about the IC50 (Genome polyprotein [2]) of the same compound?
**A.** Its IC50 is 3.74 µM.

**Q.** With Cc1ccc(P(=O)(Nc2cc(-c3ccc(Cl)cc3)sc2C(=O)O)OC(C)C)c(C)c1 (stereo not given) as the compound, how does the EC50 (Hepatitis C virus) read?
**A.** Its EC50 is 2.28 µM.

**Q.** And the IC50 (Genome polyprotein [2])?
**A.** The IC50 was 0.189 µM.

**Q.** What does the source list for COP(=O)(Nc1cc(-c2ccc(-c3cc4nc(C)ccn4n3)cc2)sc1C(=O)O)c1ccc(C)cc1C (stereo not given)?
**A.** EC50 (Hepatitis C virus): 0.0007 µM; IC50 (Genome polyprotein [2]): 0.0078 µM

**Q.** What does the source list for Cc1ccc(P(=O)(Nc2cc(-c3ccc(Cl)cc3)sc2C(=O)O)OCCc2ccc(F)cc2)c(C)c1 (stereo not given)?
**A.** EC50 (Hepatitis C virus): 2.41 µM; IC50 (Genome polyprotein [2]): 0.314 µM

**Q.** Which results are given for CCOP(=O)(Nc1cc(-c2ccc(Cl)cc2)sc1C(=O)O)c1ccc(Cl)cc1C (stereo not given)?
**A.** EC50 (Hepatitis C virus): 2.92 µM; IC50 (Genome polyprotein [2]): 0.081 µM

**Q.** COP(=O)(Nc1cc(-c2ccc(-c3cc4ncccc4o3)cc2)sc1C(=O)O)c1ccc(C)cc1C (stereo not given) was tested. Which EC50 (Hepatitis C virus) did it give?
**A.** The EC50 was 0.0007 µM.

**Q.** What about the IC50 (Genome polyprotein [2]) of the same compound?
**A.** The IC50 was 0.0054 µM.

**Q.** What does the source list for CCCCOP(=O)(Nc1cc(-c2ccc(Cl)cc2)sc1C(=O)O)c1ccc(C)cc1C (stereo not given)?
**A.** EC50 (Hepatitis C virus): 2.71 µM; IC50 (Genome polyprotein [2]): 0.17 µM

**Q.** With COP(=O)(Nc1cc(-c2ccc(-c3cc4ccccc4o3)cc2)sc1C(=O)O)c1ccc(C)cc1C (stereo not given) as the compound, how does the EC50 (Hepatitis C virus) read?
**A.** Its EC50 is 0.0017 µM.

**Q.** And the IC50 (Genome polyprotein [2])?
**A.** The IC50 was 0.0056 µM.

**Q.** What does the source list for COP(=O)(Nc1cc(-c2ccc(Cl)cc2)sc1C(=O)O)c1ccc(C)cc1C (stereo not given)?
**A.** EC50 (Hepatitis C virus): 0.66 µM; IC50 (Genome polyprotein [2]): 0.021 µM

**Q.** With Cc1ccc(P(=O)(Nc2cc(-c3ccc(Cl)cc3)sc2C(=O)O)OCCC(C)C)c(C)c1 (stereo not given) as the compound, how does the EC50 (Hepatitis C virus) read?
**A.** Its EC50 is 3.56 µM.

**Q.** And the IC50 (Genome polyprotein [2])?
**A.** The IC50 was 0.298 µM.

**Q.** Which EC50 (Hepatitis C virus) does the source give for COP(=O)(Nc1cc(-c2ccc(Cl)cc2)sc1C(=O)O)c1ccc(Cl)cc1F (stereo not given) here?
**A.** Its EC50 is 3.35 µM.

**Q.** And the IC50 (Genome polyprotein [2])?
**A.** Its IC50 is 0.298 µM.

**Q.** What does the source list for COP(=O)(Nc1cc(-c2ccc(-c3cc4ccccc4s3)cc2)sc1C(=O)O)c1ccc(C)cc1C (stereo not given)?
**A.** EC50 (Hepatitis C virus): 0.0232 µM; IC50 (Genome polyprotein [2]): 0.0163 µM

**Q.** For COP(=O)(Nc1cc(-c2ccc(-c3cc4nc(C)cc(N)n4n3)cc2)sc1C(=O)O)c1ccc(C)cc1C (stereo not given), which EC50 (Hepatitis C virus) is on record?
**A.** Its EC50 is 0.0005 µM.

**Q.** And the IC50 (Genome polyprotein [2])?
**A.** The IC50 was 0.0051 µM.

**Q.** And the IC50 (Genome polyprotein [3])?
**A.** The IC50 was 0.009 µM.

**Q.** How did the EC50 (Hepatitis C virus) turn out when Cc1ccc(P(=O)(Nc2cc(-c3ccc(Cl)cc3)sc2C(=O)O)OCC(C)C)c(C)c1 (stereo not given) was run?
**A.** The EC50 was 3.04 µM.

**Q.** What about the IC50 (Genome polyprotein [2]) of the same compound?
**A.** The IC50 was 0.223 µM.

**Q.** Which EC50 (Hepatitis C virus) does the source give for COP(=O)(c1ccc(C)cc1C)N(c1cc(-c2ccc(F)cc2)sc1C(=O)O)C(C)C (stereo not given) here?
**A.** The EC50 was 4.19 µM.

**Q.** And the IC50 (Genome polyprotein [2])?
**A.** Its IC50 is 0.517 µM.

**Q.** What does the source list for Cc1ccc(P(=O)(Nc2cc(-c3ccc(Cl)cc3)sc2C(=O)O)OCc2cc3ccccc3o2)c(C)c1 (stereo not given)?
**A.** EC50 (Hepatitis C virus): 2.7 µM; IC50 (Genome polyprotein [2]): 0.425 µM

**Q.** What does the source list for CCOP(=O)(Nc1cc(-c2ccccc2)sc1C(=O)O)C1CCC(C)CC1 (stereo not given)?
**A.** EC50 (Hepatitis C virus): > 8.3 µM; IC50 (Genome polyprotein [2]): > 10 µM

**Q.** C=CP(=O)(Nc1cc(-c2ccc(Cl)cc2)sc1C(=O)O)OCC (stereo not given) was tested. Which EC50 (Hepatitis C virus) did it give?
**A.** Its EC50 is over 8.3 µM.

**Q.** What about the IC50 (Genome polyprotein [2]) of the same compound?
**A.** The IC50 was over 10000 µM.

**Q.** For COP(=O)(Nc1cc(-c2ccc(C#CC3CC3)cc2)sc1C(=O)O)c1ccc(C)cc1C (stereo not given), which EC50 (Hepatitis C virus) is on record?
**A.** The EC50 was 2.47 µM.

**Q.** What about the IC50 (Genome polyprotein [2]) of the same compound?
**A.** The IC50 was 0.0458 µM.

**Q.** How did the EC50 (Hepatitis C virus) turn out when CCCOP(=O)(Nc1cc(-c2ccc(Cl)cc2)sc1C(=O)O)c1ccc(C)cc1C (stereo not given) was run?
**A.** The EC50 was 3.53 µM.

**Q.** And the IC50 (Genome polyprotein [2])?
**A.** The IC50 was 0.147 µM.

**Q.** Which EC50 (Hepatitis C virus) does the source give for COP(=O)(Nc1cc(-c2ccc(C#Cc3ccsc3)cc2)sc1C(=O)O)c1ccc(C)cc1C (stereo not given) here?
**A.** The EC50 was 0.0048 µM.

**Q.** What about the IC50 (Genome polyprotein [2]) of the same compound?
**A.** The IC50 was 0.0092 µM.

**Q.** With CCOP(=O)(Nc1cc(-c2ccc(Cl)cc2)sc1C(=O)O)C1CC=C(C)CC1 (stereo not given) as the compound, how does the EC50 (Hepatitis C virus) read?
**A.** The EC50 was over 8.3 µM.

**Q.** What about the IC50 (Genome polyprotein [2]) of the same compound?
**A.** The IC50 was 1.13 µM.

**Q.** How did the EC50 (Hepatitis C virus) turn out when COP(=O)(Nc1cc(-c2ccc(F)cc2)sc1C(=O)O)c1ccc(C)cc1C (stereo not given) was run?
**A.** The EC50 was 2.14 µM.

**Q.** What about the IC50 (Genome polyprotein [2]) of the same compound?
**A.** Its IC50 is 0.118 µM.

**Q.** For COP(=O)(c1ccc(C)cc1C)N(C)c1cc(-c2ccc(Cl)cc2)sc1C(=O)O (stereo not given), which EC50 (Hepatitis C virus) is on record?
**A.** Its EC50 is 2.82 µM.

**Q.** And the IC50 (Genome polyprotein [2])?
**A.** The IC50 was 0.059 µM.

**Q.** With COCCOP(=O)(Nc1cc(-c2ccc(Cl)cc2)sc1C(=O)O)c1ccc(C)cc1C (stereo not given) as the compound, how does the EC50 (Hepatitis C virus) read?
**A.** Its EC50 is 2.66 µM.

**Q.** And the IC50 (Genome polyprotein [2])?
**A.** The IC50 was 0.135 µM.

**Q.** Which EC50 (Hepatitis C virus) does the source give for CC(C)N(c1cc(-c2ccccc2)sc1C(=O)O)C(=O)[C@H]1CC[C@H](C)CC1 here?
**A.** Its EC50 is 0.369 to 0.6 µM.

**Q.** And the IC50 (Genome polyprotein [2])?
**A.** Its IC50 is 0.035 µM.

**Q.** And the IC50 [1]?
**A.** The IC50 was 1.5 µM.
